Numbered stars: 1 amine (or outer) side, 2 acyl side, 3 side chain; on linkers, the order of the positions; unused ones are H or OH. Square brackets hold non-standard residues; d marks the D form. Side chains are listed from the residue outwards. Peptide text beside a SMILES is read from it. * marks the point of attachment. C18 diacid = O=C(O)CCCCCCCCCCCCCCCCC(=O)*; γGlu = O=C(O)[C@H](CCC(=O)[*:2])N[*:1]; AEEA = NCCOCCOCC(=O)O; Aib = CC(C)(N)C(=O)O
Key:
[1] = target: T1, gastric inhibitory peptide receptor (GIPR) (Homo sapiens, UniProt P48546); experiment: cAMP pharmacological functional assay in presence of casein, hGIPR; assay type: cell-based; details: HEK293 cells expressing hGIPR, 0.1% Casein, geometric mean; read-out: hGIPR cAMP Rel EC50 nM (SEM, n)
T1 sequence (P48546 22-466): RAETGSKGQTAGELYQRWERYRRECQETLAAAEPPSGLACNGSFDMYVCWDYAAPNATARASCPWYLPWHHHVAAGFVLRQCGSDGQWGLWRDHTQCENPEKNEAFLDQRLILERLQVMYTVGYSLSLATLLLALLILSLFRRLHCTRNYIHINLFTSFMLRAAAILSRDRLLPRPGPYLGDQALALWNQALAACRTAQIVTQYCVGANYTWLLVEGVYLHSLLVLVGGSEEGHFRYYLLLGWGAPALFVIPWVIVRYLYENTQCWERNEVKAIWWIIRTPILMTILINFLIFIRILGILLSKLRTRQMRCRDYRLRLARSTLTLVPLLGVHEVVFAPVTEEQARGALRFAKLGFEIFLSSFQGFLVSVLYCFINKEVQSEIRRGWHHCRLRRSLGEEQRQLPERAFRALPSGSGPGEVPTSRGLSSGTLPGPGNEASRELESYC

human Gcg receptor = target: T2, human Gcg receptor (Homo sapiens, UniProt P47871); experiment: [125I]-Glucagon binding (SPA), human Gcg receptor; details: read-out: hGLcgR Ki, nM (SEM, n)
T2 construct: expressed in transfected cells; crude membranes
In short: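 Crude membranes from cells expressing the receptor, prepared by hypotonic lysis in 50 mM Tris HCl pH 7.5 with protease inhibitors, homogenization and differential centrifugation, were used in a WGA-bead SPA. Binding buffer: 25 mM HEPES pH 7.4, 2.5 mM CaCl2, 1 mM MgCl2, bacitracin, Tween-20.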

human GLP-1R = human GLP-1R (Homo sapiens, UniProt P43220); experiment: [125I]-GLP-1 binding (SPA), human GLP-1 receptor; design: expressed in transfected cells; crude membranes; details: read-out: hGLP1R Ki, (nM) (SEM, n)
In short: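 Assay buffer: HEPES 25 mM, pH 7.4, CaCl2 2.5 mM, MgCl2 1 mM, with EDTA-free protease inhibitors. Receptor came from crude cell membranes prepared by homogenization and centrifugation at 4° C. IC50s came from four-parameter fits (maximum, minimum, IC50, Hill slope) and were expressed as Ki geometric means with SEM.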

[2] = target: human GLP-1 receptor (GLP-1R) (Homo sapiens, UniProt P43220); experiment: cAMP pharmacological functional assay in presence of casein, hGLP-1R; assay type: cell-based; details: HEK293 cells expressing hGLP-1R, 0.1% Casein, geometric mean; read-out: hGLP1R cAMP Rel EC50 nM (SEM, n)
human GIP receptor = target: T3, human GIP receptor (Homo sapiens, UniProt P48546); experiment: [125I]-GIP binding (SPA), human GIP receptor; details: read-out: hGIPR Ki, nM (SEM, n)
T3 construct: expressed in transfected cells; crude membranes
T3 sequence (P48546 22-466): T1 sequence (P48546 22-466)

Chain of human GLP-1R (P43220 24-463): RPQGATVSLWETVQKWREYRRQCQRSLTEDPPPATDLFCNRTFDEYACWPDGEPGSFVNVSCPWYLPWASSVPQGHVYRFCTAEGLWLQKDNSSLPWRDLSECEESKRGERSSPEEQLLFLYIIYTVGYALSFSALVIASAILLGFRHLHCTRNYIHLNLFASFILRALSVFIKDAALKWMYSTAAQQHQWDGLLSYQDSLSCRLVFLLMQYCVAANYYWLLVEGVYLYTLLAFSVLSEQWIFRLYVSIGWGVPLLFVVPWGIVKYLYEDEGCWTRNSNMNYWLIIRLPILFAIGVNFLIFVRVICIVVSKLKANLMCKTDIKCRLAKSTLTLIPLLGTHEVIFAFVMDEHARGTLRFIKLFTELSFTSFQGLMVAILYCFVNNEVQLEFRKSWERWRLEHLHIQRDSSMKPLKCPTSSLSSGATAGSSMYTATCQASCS
Chain of human GLP-1 receptor (GLP-1R) (P43220 24-463): as above
T2 sequence (P47871 26-477): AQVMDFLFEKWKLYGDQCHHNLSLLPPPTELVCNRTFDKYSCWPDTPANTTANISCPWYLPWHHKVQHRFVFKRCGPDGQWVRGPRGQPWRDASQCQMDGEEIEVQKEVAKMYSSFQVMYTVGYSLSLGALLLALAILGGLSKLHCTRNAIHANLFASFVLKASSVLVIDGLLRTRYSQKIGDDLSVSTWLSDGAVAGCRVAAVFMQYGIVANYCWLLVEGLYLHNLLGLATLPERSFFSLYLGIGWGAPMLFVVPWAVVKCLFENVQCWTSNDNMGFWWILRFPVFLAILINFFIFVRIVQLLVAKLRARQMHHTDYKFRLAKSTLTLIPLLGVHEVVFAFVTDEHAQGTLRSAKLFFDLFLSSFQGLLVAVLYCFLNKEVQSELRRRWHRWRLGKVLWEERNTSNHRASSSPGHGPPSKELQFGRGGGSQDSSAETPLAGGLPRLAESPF

EC50 [1] | Ki (human Gcg receptor) | Ki (human GLP-1R) | EC50 [2] | Ki (human GIP receptor) | SMILES
0.257 nM | > 1100 nM | 7.1 nM | 0.0595 nM | 0.152 nM | CC[C@H](C)[C@H](NC(=O)[C@H](CC(C)C)NC(=O)[C@H](Cc1ccc(O)cc1)NC(=O)[C@H](CCC(=O)O)NC(=O)[C@@H](NC(=O)[C@H](Cc1ccccc1)NC(=O)[C@H](C)NC(=O)C(C)(C)NC(=O)[C@H](CCC(N)=O)NC(=O)[C@H](C)NC(=O)[C@H](CCCCNC(=O)COCCOCCNC(=O)COCCOCCNC(=O)CC[C@H](NC(=O)CCCCCCCCCCCCCCCCC(=O)O)C(=O)O)NC(=O)[C@H](CCC(=O)O)NC(=O)[C@H](CC(=O)O)NC(=O)[C@H](CC(C)C)NC(=O)[C@H](CC(C)C)NC(=O)[C@@H](NC(=O)[C@H](CO)NC(=O)[C@H](Cc1ccc(O)cc1)NC(=O)[C@H](CC(=O)O)NC(=O)[C@H](CO)NC(=O)[C@@H](NC(=O)[C@H](Cc1ccccc1)NC(=O)[C@@H](NC(=O)CNC(=O)[C@H](CCC(=O)O)NC(=O)C(C)(C)NC(=O)[C@@H](N)Cc1ccc(O)cc1)[C@@H](C)O)[C@@H](C)O)[C@@H](C)CC)[C@@H](C)CC)C(=O)N[C@@H](CCC(=O)O)C(=O)NCC(=O)NCC(N)=O [Example 269] (H-Y[Aib]EGTFTSDYSILLDEK([AEEA-AEEA-γGlu-C18 diacid])AQ[Aib]AFIEYLIEGG-NH2)
0.328 nM | > 1190 nM | 8.27 nM | 0.128 nM | 0.117 nM | CC[C@H](C)[C@H](NC(=O)[C@H](CC(C)C)NC(=O)[C@H](Cc1ccc(O)cc1)NC(=O)[C@H](CCC(=O)O)NC(=O)[C@@H](NC(=O)[C@H](Cc1ccccc1)NC(=O)[C@H](CCC(=O)O)NC(=O)C(C)(C)NC(=O)[C@H](CCC(N)=O)NC(=O)[C@H](C)NC(=O)[C@H](CCCCNC(=O)COCCOCCNC(=O)COCCOCCNC(=O)CC[C@H](NC(=O)CCCCCCCCCCCCCCCCC(=O)O)C(=O)O)NC(=O)[C@H](CCCCN)NC(=O)[C@H](CC(=O)O)NC(=O)[C@H](CC(C)C)NC(=O)[C@H](CC(C)C)NC(=O)[C@@H](NC(=O)[C@H](CO)NC(=O)[C@H](Cc1ccc(O)cc1)NC(=O)[C@H](CC(=O)O)NC(=O)[C@H](CO)NC(=O)[C@@H](NC(=O)[C@H](Cc1ccccc1)NC(=O)[C@@H](NC(=O)CNC(=O)[C@H](CCC(=O)O)NC(=O)C(C)(C)NC(=O)[C@@H](N)Cc1ccc(O)cc1)[C@@H](C)O)[C@@H](C)O)[C@@H](C)CC)[C@@H](C)CC)C(=O)N[C@@H](CCC(=O)O)C(=O)NCC(=O)NCC(=O)N1CCC[C@H]1C(=O)N[C@@H](CO)C(=O)N[C@@H](CO)C(=O)NCC(N)=O [Example 270] (H-Y[Aib]EGTFTSDYSILLDKK([AEEA-AEEA-γGlu-C18 diacid])AQ[Aib]EFIEYLIEGGPSSG-NH2; N-terminus assumed)
0.334 nM | > 1150 nM | 5.09 nM | 0.0352 nM | 0.107 nM | CC[C@H](C)[C@H](NC(=O)[C@H](CC(C)C)NC(=O)[C@H](Cc1ccc(O)cc1)NC(=O)[C@H](CCC(=O)O)NC(=O)[C@@H](NC(=O)[C@H](Cc1ccccc1)NC(=O)[C@H](CCC(=O)O)NC(=O)C(C)(C)NC(=O)[C@H](CCC(N)=O)NC(=O)[C@H](C)NC(=O)[C@H](CCCCNC(=O)COCCOCCNC(=O)COCCOCCNC(=O)CC[C@H](NC(=O)CCCCCCCCCCCCCCCCC(=O)O)C(=O)O)NC(=O)[C@H](CCCCN)NC(=O)[C@H](CC(=O)O)NC(=O)[C@H](CC(C)C)NC(=O)[C@H](CC(C)C)NC(=O)[C@@H](NC(=O)[C@H](CO)NC(=O)[C@H](Cc1ccc(O)cc1)NC(=O)[C@H](CC(=O)O)NC(=O)[C@H](CO)NC(=O)[C@@H](NC(=O)[C@H](Cc1ccccc1)NC(=O)[C@@H](NC(=O)CNC(=O)[C@H](CCC(=O)O)NC(=O)C(C)(C)NC(=O)[C@@H](N)Cc1ccc(O)cc1)[C@@H](C)O)[C@@H](C)O)[C@@H](C)CC)[C@@H](C)CC)C(=O)N[C@@H](CCC(=O)O)C(=O)NCC(=O)NCC(N)=O [Example 271] (H-Y[Aib]EGTFTSDYSILLDKK([AEEA-AEEA-γGlu-C18 diacid])AQ[Aib]EFIEYLIEGG-NH2)

The next lines start with the molecule.

SMILES | EC50 [1] | Ki (human Gcg receptor) | Ki (human GLP-1R) | EC50 [2] | Ki (human GIP receptor)
CC[C@H](C)[C@H](NC(=O)[C@H](CC(C)C)NC(=O)[C@](C)(Cc1ccc(O)cc1)NC(=O)[C@@H](CCC(=O)O)NC(=O)[C@@H](NC(=O)[C@H](Cc1ccccc1)NC(=O)[C@H](CCC(=O)O)NC(=O)C(C)(C)NC(=O)[C@H](CCC(N)=O)NC(=O)[C@H](C)NC(=O)[C@H](CCCCNC(=O)COCCOCCNC(=O)COCCOCCNC(=O)CC[C@H](NC(=O)CCCCCCCCCCCCCCCCC(=O)O)C(=O)O)NC(=O)[C@H](CCCN)NC(=O)[C@H](CC(=O)O)NC(=O)[C@H](CC(C)C)NC(=O)[C@](C)(CC(C)C)NC(=O)[C@@H](NC(=O)[C@H](CO)NC(=O)[C@H](Cc1ccncc1)NC(=O)[C@H](CC(=O)O)NC(=O)[C@H](CO)NC(=O)[C@@H](NC(=O)[C@](C)(Cc1ccccc1F)NC(=O)[C@@H](NC(=O)CNC(=O)[C@H](CCC(=O)O)NC(=O)C(C)(C)NC(=O)[C@@H](N)Cc1ccc(O)cc1)[C@@H](C)O)[C@@H](C)O)[C@@H](C)CC)[C@@H](C)CC)C(=O)N[C@@H](CCC(=O)O)C(=O)NCC(=O)NCC(=O)N1CCC[C@H]1C(=O)N[C@@H](CO)C(=O)N[C@@H](CO)C(=O)NCC(N)=O [Example 264] | 0.0196 nM | 388 nM | 0.412 nM | 0.0229 nM | 0.015 nM
CC[C@H](C)[C@H](NC(=O)[C@H](CC(C)C)NC(=O)C(C)(Cc1ccc(O)cc1)NC(=O)[C@@H](CCC(=O)O)NC(=O)[C@@H](NC(=O)[C@H](Cc1ccccc1)NC(=O)[C@H](CCC(=O)O)NC(=O)C(C)(C)NC(=O)[C@H](CCC(N)=O)NC(=O)[C@H](C)NC(=O)[C@H](CCCCNC(=O)COCCOCCNC(=O)COCCOCCNC(=O)CC[C@H](NC(=O)CCCCCCCCCCCCCCCCC(=O)O)C(=O)O)NC(=O)[C@H](CCCN)NC(=O)[C@H](CC(=O)O)NC(=O)[C@H](CC(C)C)NC(=O)C(C)(CC(C)C)NC(=O)[C@@H](NC(=O)[C@H](CO)NC(=O)[C@H](Cc1ccncc1)NC(=O)[C@H](CC(=O)O)NC(=O)[C@H](CO)NC(=O)[C@@H](NC(=O)C(C)(Cc1ccccc1F)NC(=O)[C@@H](NC(=O)CNC(=O)[C@H](CCC(=O)O)NC(=O)C(C)(C)NC(=O)[C@@H](N)Cc1ccc(O)cc1)[C@@H](C)O)[C@@H](C)O)[C@@H](C)CC)[C@@H](C)CC)C(=O)N[C@@H](CCC(=O)O)C(=O)NCC(=O)NCC(N)=O (stereo partly drawn) [Example 265] | 0.0229 nM | 567 nM | 0.537 nM | 0.0223 nM | 0.0224 nM
CC[C@H](C)[C@H](NC(=O)[C@H](CC(C)C)NC(=O)[C@H](Cc1ccc(O)cc1)NC(=O)[C@H](CCC(=O)O)NC(=O)[C@@H](NC(=O)[C@H](Cc1ccccc1)NC(=O)[C@H](C)NC(=O)C(C)(C)NC(=O)[C@H](CCC(N)=O)NC(=O)[C@H](C)NC(=O)[C@H](CCCCNC(=O)COCCOCCNC(=O)COCCOCCNC(=O)CC[C@H](NC(=O)CCCCCCCCCCCCCCCCC(=O)O)C(=O)O)NC(=O)[C@H](CCC(=O)O)NC(=O)[C@H](CC(=O)O)NC(=O)[C@H](CC(C)C)NC(=O)[C@H](CC(C)C)NC(=O)[C@@H](NC(=O)[C@H](CO)NC(=O)[C@H](Cc1ccc(O)cc1)NC(=O)[C@H](CC(=O)O)NC(=O)[C@H](CO)NC(=O)[C@@H](NC(=O)[C@H](Cc1ccccc1)NC(=O)[C@@H](NC(=O)CNC(=O)[C@H](CCC(=O)O)NC(=O)C(C)(C)NC(=O)[C@@H](N)Cc1ccc(O)cc1)[C@@H](C)O)[C@@H](C)O)[C@@H](C)CC)[C@@H](C)CC)C(=O)N[C@@H](CCC(=O)O)C(=O)NCC(=O)NCC(=O)N1CCC[C@H]1C(=O)N[C@@H](CO)C(=O)N[C@@H](CO)C(=O)NCC(N)=O [Example 268] (H-Y[Aib]EGTFTSDYSILLDEK([AEEA-AEEA-γGlu-C18 diacid])AQ[Aib]AFIEYLIEGGPSSG-NH2) | 0.239 nM | > 1190 nM | 3.98 nM | 0.0572 nM | 0.0814 nM

Reference: US12252524B2, “GIP/GLP1 co-agonist compounds” (Eli Lilly and Company, priority 2018, dated 2025)
